Test results published in the supplement of paper PMC9013687.

Key:
[1] = test system: Danio rerio embryo; conditions: exposure time: 4 dpf
Description: (§1)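 Zebrafish embryos (UFZ-OBI strain) were exposed from 2 hpf for 48 h (2 dpf) or 96 h (4 dpf) at 28 °C; spontaneous tail coiling was scored at 25 hpf. Morphological features from automated image analysis (FishInspector), heart rate and locomotor response were fitted with drc models. Quantal endpoints were dichotomised at 2.5 SD from controls and fitted with a log-logistic model; heart rate, pigmentation and STC were normalised to the replicate control mean. Betamethasone was tested as betamethasone dipropionate, diflorasone as diflorasone diacetate.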

[2] = test system: Danio rerio embryo
Description: as §1

[3] = test system: Danio rerio embryo; assay: EC50 Eye size_Decrease
Description: as §1

[4] = test system: Danio rerio embryo; assay: EC50 Head size_Decrease
Description: as §1

[5] = test system: Danio rerio embryo; assay: EC10 Heart rate; higher = less potent
Description: as §1

[6] = test system: Danio rerio embryo; assay: EC10 Lack of SB; higher = less potent; conditions: exposure time: 4 dpf
Description: as §1

[7] = test system: Danio rerio embryo; assay: EC20 Lack of SB; higher = less potent; conditions: exposure time: 4 dpf
Description: as §1

[8] = test system: Danio rerio embryo; assay: EC20 Heart rate; higher = less potent
Description: as §1

[9] = test system: Danio rerio embryo; assay: EC10 STC increase; higher = less potent; conditions: exposure time: 25 h
Description: as §1

[10] = test system: Danio rerio embryo; assay: EC20 STC increase; higher = less potent; conditions: exposure time: 25 h
Description: as §1

[11] = test system: Danio rerio embryo; assay: EC20 Eye size_Decrease; higher = less potent
Description: as §1

[12] = test system: Danio rerio embryo; assay: EC10 Eye size_Decrease; higher = less potent
Description: as §1

[13] = test system: Danio rerio embryo; assay: EC20 Head size_Decrease; higher = less potent
Description: as §1

[14] = test system: Danio rerio embryo; assay: EC10 Head size_Decrease; higher = less potent
Description: as §1

[15] = test system: Danio rerio embryo; assay: EC10 Pigmentation increase; higher = less potent; conditions: exposure time: 4 dpf
Description: as §1

[16] = test system: Danio rerio embryo; assay: EC20 Pigmentation increase; higher = less potent; conditions: exposure time: 4 dpf
Description: as §1

[17] = test system: Danio rerio embryo; conditions: exposure time: 2 dpf
Description: as §1

[18] = test system: Danio rerio embryo; assay: EC10 STC decrease; higher = less potent; conditions: exposure time: 25 h
Description: as §1

[19] = test system: Danio rerio embryo; assay: EC20 STC decrease; higher = less potent; conditions: exposure time: 25 h
Description: as §1

[20] = test system: Danio rerio embryo; assay: EC20 LMR ligth increase; higher = less potent; conditions: exposure time: 4 dpf
Description: as §1

[21] = test system: Danio rerio embryo; assay: EC10 LMR ligth increase; higher = less potent; conditions: exposure time: 4 dpf
Description: as §1

[22] = test system: Danio rerio embryo; assay: EC10 Pigmentation decrease; higher = less potent; conditions: exposure time: 2 dpf
Description: as §1

[23] = test system: Danio rerio embryo; assay: EC20 Pigmentation decrease; higher = less potent; conditions: exposure time: 2 dpf
Description: as §1

[24] = test system: Danio rerio embryo; assay: EC50 Head trunk angle_Decrease; conditions: exposure time: 2 dpf
Description: as §1

[25] = test system: Danio rerio embryo; assay: EC20 Otolith; higher = less potent; conditions: exposure time: 2 dpf
Description: as §1

[26] = test system: Danio rerio embryo; assay: EC10 Otolith; higher = less potent; conditions: exposure time: 2 dpf
Description: as §1

[27] = test system: Danio rerio embryo; assay: EC20 Head trunk angle_Decrease; higher = less potent; conditions: exposure time: 2 dpf
Description: as §1

[28] = test system: Danio rerio embryo; assay: EC50 Mandibular arch distance_Decrease; conditions: exposure time: 4 dpf
Description: as §1

[29] = test system: Danio rerio embryo; assay: EC20 Mandibular arch distance_Decrease; higher = less potent; conditions: exposure time: 4 dpf
Description: as §1

[30] = test system: Danio rerio embryo; assay: EC10 Mandibular arch distance_Decrease; higher = less potent; conditions: exposure time: 4 dpf
Description: as §1

[31] = test system: Danio rerio embryo; assay: EC10 LMR ligth decrease; higher = less potent; conditions: exposure time: 4 dpf
Description: as §1

[32] = test system: Danio rerio embryo; assay: EC20 LMR ligth decrease; higher = less potent; conditions: exposure time: 4 dpf
Description: as §1

Row | Compound | EC50 Lack of SB [1] [µM] | EC50 Heart rate ([2]; exposure time: 2 dpf) [µM] | EC50 Eye size Decrease ([3]; exposure time: 2 dpf) [µM] | EC50 Eye size Decrease ([3]; exposure time: 4 dpf) [µM] | EC50 Head size Decrease ([4]; exposure time: 2 dpf) [µM] | EC10 Heart rate ([5]; exposure time: 2 dpf) [µM] | EC10 Heart rate ([5]; exposure time: 4 dpf) [µM] | EC10 Lack of SB [6] [µM] | EC20 Lack of SB [7] [µM] | EC20 Heart rate ([8]; exposure time: 2 dpf) [µM] | EC20 Heart rate ([8]; exposure time: 4 dpf) [µM] | EC20 Eye size Decrease ([11]; exposure time: 2 dpf) [µM] | EC20 Eye size Decrease ([11]; exposure time: 4 dpf) [µM] | EC10 Eye size Decrease ([12]; exposure time: 2 dpf) [µM] | EC10 Eye size Decrease ([12]; exposure time: 4 dpf) [µM] | EC20 Head size Decrease ([13]; exposure time: 2 dpf) [µM] | EC10 Head size Decrease ([14]; exposure time: 2 dpf) [µM] | EC50 Pigmentation decrease [17] [µM] | EC50 Heart rate ([2]; exposure time: 4 dpf) [µM] | EC10 STC decrease [18] [µM] | also measured
1 | O=C(O)CCc1nc(-c2ccccc2)c(-c2ccccc2)o1 [Oxaprozin] | 10.5 | 150 | 78.1 | 26.7 | 26.6 | 28 | 23 | 7.85 | 8.73 | 52.1 | 29.1 | 61.2 | 22.7 | 53.1 | 20.6 | 15.1 | 10.8 | – | – | – | EC50 Head size Decrease ([4]; exposure time: 4 dpf): 43.4 µM; EC10 STC increase [9]: 6.23 µM; EC20 STC increase [10]: 12.4 µM; EC20 Head size Decrease ([13]; exposure time: 4 dpf): 19.7 µM; EC10 Head size Decrease ([14]; exposure time: 4 dpf): 12.4 µM; EC10 Pigmentation increase [15]: 29.2 µM; EC20 Pigmentation increase [16]: 31 µM
2 | CCCNCC(O)COc1ccccc1C(=O)CCc1ccccc1 (stereo unspecified) [Propafenone] | 7.65 | 52.1 | – | – | – | 1 | 2.29 | 6.08 | 6.61 | 4.31 | 4.78 | – | – | – | – | – | – | 62.3 | 16.8 | 6.36 | EC50 Head size Decrease ([4]; exposure time: 4 dpf): 31 µM; EC20 STC decrease [19]: 13.3 µM; EC20 Head size Decrease ([13]; exposure time: 4 dpf): 18.3 µM; EC20 LMR ligth increase [20]: 17.3 µM; EC10 Head size Decrease ([14]; exposure time: 4 dpf): 13.4 µM; EC10 LMR ligth increase [21]: 16.4 µM; EC10 Pigmentation increase [15]: 23.1 µM; EC10 Pigmentation decrease [22]: 43 µM; EC20 Pigmentation decrease [23]: 49.3 µM; EC20 Pigmentation increase [16]: 26.5 µM
3 | CCO/N=C(\CC)C1=C(O)CC(c2c(C)cc(C)cc2C)CC1=O (stereo unspecified) [Tralkoxydim] | 63.2 | – | 164 | 104 | 176 | – | 46.5 | 45.3 | 51.2 | – | 49.9 | 122 | 94.7 | 103 | 89.7 | 103 | 74.7 | – | 56.3 | 127 | EC50 Head trunk angle Decrease [24]: 120 µM; EC20 Otolith [25]: 160 µM; EC10 Otolith [26]: 126 µM; EC20 STC decrease [19]: 142 µM; EC20 Head trunk angle Decrease [27]: 88 µM
4 | CC(C)(C)C(O)C(Oc1ccc(Cl)cc1)n1cncn1 (stereo unspecified) [Triadimenol] | 20.9 | 56.8 | 200 | 108 | 177 | 13.7 | 64.4 | 19.6 | 20.1 | 23.2 | 96.8 | 159 | 90.2 | 138 | 81.1 | 147 | 132 | 152 | 194 | 118 | EC50 Head trunk angle Decrease [24]: 152 µM; EC50 Mandibular arch distance Decrease [28]: 169 µM; EC20 STC decrease [19]: 135 µM; EC20 LMR ligth increase [20]: 17.3 µM; EC10 LMR ligth increase [21]: 8.63 µM; EC10 Pigmentation decrease [22]: 76.2 µM; EC20 Pigmentation decrease [23]: 98.2 µM; EC20 Head trunk angle Decrease [27]: 113 µM; EC20 Mandibular arch distance Decrease [29]: 133 µM; EC10 Mandibular arch distance Decrease [30]: 116 µM
5 | CSc1nc2cc(Cl)c(Oc3cccc(Cl)c3Cl)cc2[nH]1 [Triclabendazole] | 0.516 | 3.71 | 1.72 | 0.644 | – | 0.345 | 0.19 | 0.462 | 0.481 | 0.829 | 0.364 | 1.42 | 0.512 | 1.27 | 0.448 | – | – | 1.92 | 1.11 | 0.00111 | EC50 Head trunk angle Decrease [24]: 2.05 µM; EC20 STC decrease [19]: 0.00782 µM; EC10 LMR ligth decrease [31]: 0.783 µM; EC20 LMR ligth decrease [32]: 0.792 µM; EC10 Pigmentation increase [15]: 0.654 µM; EC10 Pigmentation decrease [22]: 1.44 µM; EC20 Pigmentation decrease [23]: 1.6 µM; EC20 Pigmentation increase [16]: 0.667 µM; EC20 Head trunk angle Decrease [27]: 1.6 µM
6 | CCCCOC(=O)[C@@H](C)Oc1ccc(Oc2ccc(C(F)(F)F)cn2)cc1 [fluazifop-p-butyl] | 1.65 | – | 3.96 | 1.85 | 6.88 | – | – | 0.734 | 0.991 | – | – | 1.69 | 1.07 | 1.03 | 0.781 | 4.24 | 3.19 | 9.58 | – | – | EC50 Head trunk angle Decrease [24]: 15.5 µM; EC20 Otolith [25]: 6.11 µM; EC10 Otolith [26]: 4.73 µM; EC10 Pigmentation decrease [22]: 2.74 µM; EC20 Pigmentation decrease [23]: 4.35 µM; EC20 Head trunk angle Decrease [27]: 3.89 µM
